Measured values reported in publication PMC5218480 (PLoS ONE, 2017).

Test system: MV-4-11 cells
Test: Gene expression microarray analysis (Affymetrix PrimeView) and GSEA
Assay type: cell-based, human
Set-up: RFU PODN (11730768_x_at) / Fold change /veh PODN (11730768_x_at) / RFU LINC00158 (11744669_a_at) / Fold change /veh LINC00158 (11744669_a_at) / RFU DUSP10 (11751237_a_at) / Fold change /veh DUSP10 (11751237_a_at) / RFU ID3 (11757404_x_at) / Fold change /veh ID3 (11757404_x_at) / RFU PLEKHG5 (11737974_s_at) / Fold change /veh PLEKHG5 (11737974_s_at) / RFU LRRC4B (11730491_at) / Fold change /veh LRRC4B (11730491_at) / RFU GIMAP4 (11747438_a_at) / Fold change /veh GIMAP4 (11747438_a_at) / RFU KRT8 (11758183_x_at) / Fold change /veh KRT8 (11758183_x_at) / RFU CNN1 (11734310_a_at) / Fold change /veh CNN1 (11734310_a_at) / RFU VPS37D (11726825_at) / Fold change /veh VPS37D (11726825_at) / RFU C10orf10 (11716522_x_at) / Fold change /veh C10orf10 (11716522_x_at) / RFU KIR2DL2 /// KIR2DL4 /// KIR2DL5A /// KIR2DL5B /// KIR2DS1 /// KIR2DS2 /// KIR2DS3 /// KIR2DS4 /// KIR3DL3 /// KIR3DL3 /// KIR3DS1 (11738374_at) / Fold change /veh KIR2DL2 /// KIR2DL4 /// KIR2DL5A /// KIR2DL5B /// KIR2DS1 /// KIR2DS2 /// KIR2DS3 /// KIR2DS4 /// KIR3DL3 /// KIR3DL3 /// KIR3DS1 (11738374_at) / RFU C1QL1 (11718748_at) / Fold change /veh C1QL1 (11718748_at) / RFU TMPRSS4 (11747572_a_at) / Fold change /veh TMPRSS4 (11747572_a_at) / RFU HAMP (11756126_x_at) / Fold change /veh HAMP (11756126_x_at) / RFU RNFT2 (11725882_a_at) / Fold change /veh RNFT2 (11725882_a_at) / RFU NR4A2 (11747474_a_at) / Fold change /veh NR4A2 (11747474_a_at) / RFU ABCC12 (11746883_a_at) / Fold change /veh ABCC12 (11746883_a_at) / RFU TMEM136 (11760407_x_at) / Fold change /veh TMEM136 (11760407_x_at) / RFU CLDN22 /// WWC2 (11732394_at) / Fold change /veh CLDN22 /// WWC2 (11732394_at) / RFU HLA-DPB1 (11760878_x_at) / Fold change /veh HLA-DPB1 (11760878_x_at) / RFU SPINT1 (11716480_a_at) / Fold change /veh SPINT1 (11716480_a_at) / RFU GAP43 (11754022_s_at) / Fold change /veh GAP43 (11754022_s_at) / RFU A4GNT (11735810_at) / Fold change /veh A4GNT (11735810_at) / RFU PRB3 (11715151_x_at) / Fold change /veh PRB3 (11715151_x_at) / RFU TUBB4B (11761932_at) / Fold change /veh TUBB4B (11761932_at) / RFU CAPN14 (11732068_a_at) / Fold change /veh CAPN14 (11732068_a_at) / RFU TMCC2 (11721928_a_at) / Fold change /veh TMCC2 (11721928_a_at) / RFU IRGQ (11745062_a_at) / Fold change /veh IRGQ (11745062_a_at) / RFU FAM174B (11720279_a_at) / Fold change /veh FAM174B (11720279_a_at) / RFU TMPRSS4 (11748680_a_at) / Fold change /veh TMPRSS4 (11748680_a_at) / RFU FAM212B (11763350_a_at) / Fold change /veh FAM212B (11763350_a_at) / RFU PLEKHG5 (11743358_a_at) / Fold change /veh PLEKHG5 (11743358_a_at) / RFU ZSCAN30 (11745921_a_at) / Fold change /veh ZSCAN30 (11745921_a_at) / RFU CMKLR1 (11741424_a_at) / Fold change /veh CMKLR1 (11741424_a_at) / RFU LOC101060620 /// MAPK8IP1 (11723275_at) / Fold change /veh LOC101060620 /// MAPK8IP1 (11723275_at) / RFU SPTSSB (11747773_x_at) / Fold change /veh SPTSSB (11747773_x_at) / RFU PRSS12 (11739890_at) / Fold change /veh PRSS12 (11739890_at) / RFU BIN1 (11741810_x_at) / Fold change /veh BIN1 (11741810_x_at) / RFU WNT11 (11732464_a_at) / Fold change /veh WNT11 (11732464_a_at) / RFU C10orf10 (11716521_a_at) / Fold change /veh C10orf10 (11716521_a_at) / RFU C5orf56 (11738089_at) / Fold change /veh C5orf56 (11738089_at) / RFU CYB561 (11721691_x_at) / Fold change /veh CYB561 (11721691_x_at) / RFU ANKRD19P (11752326_a_at) / Fold change /veh ANKRD19P (11752326_a_at) / RFU OR2T12 /// OR2T33 /// OR2T8 (11738714_s_at) / Fold change /veh OR2T12 /// OR2T33 /// OR2T8 (11738714_s_at) / RFU VCAN (11748164_a_at) / Fold change /veh VCAN (11748164_a_at) / RFU JSRP1 (11732532_at) / Fold change /veh JSRP1 (11732532_at) / RFU KRTAP10-11 (11738290_x_at) / Fold change /veh KRTAP10-11 (11738290_x_at) / RFU MYO3A (11730013_a_at) / Fold change /veh MYO3A (11730013_a_at) / RFU EBF3 (11725865_a_at) / Fold change /veh EBF3 (11725865_a_at) / RFU CAMK2N1 (11719241_x_at) / Fold change /veh CAMK2N1 (11719241_x_at) / RFU C5orf56 (11738088_a_at) / Fold change /veh C5orf56 (11738088_a_at) / RFU OLFML3 (11715873_a_at) / Fold change /veh OLFML3 (11715873_a_at) / RFU LOC100653217 /// NTM (11731650_a_at) / Fold change /veh LOC100653217 /// NTM (11731650_a_at) / RFU MAPK11 (11762145_a_at) / Fold change /veh MAPK11 (11762145_a_at) / RFU FIZ1 (11724087_x_at) / Fold change /veh FIZ1 (11724087_x_at) / RFU OASL (11726364_x_at) / Fold change /veh OASL (11726364_x_at) / RFU SOX15 (11748057_x_at) / Fold change /veh SOX15 (11748057_x_at) / RFU CD79A (11719716_a_at) / Fold change /veh CD79A (11719716_a_at) / RFU HIST1H1D (11736915_at) / Fold change /veh HIST1H1D (11736915_at) / RFU CASKIN2 (11723855_a_at) / Fold change /veh CASKIN2 (11723855_a_at) / RFU LOC730098 (11760151_x_at) / Fold change /veh LOC730098 (11760151_x_at) / RFU OR4N2 (11742367_at) / Fold change /veh OR4N2 (11742367_at) / RFU PRRT2 (11749266_a_at) / Fold change /veh PRRT2 (11749266_a_at) / RFU SNX32 (11753110_a_at) / Fold change /veh SNX32 (11753110_a_at) / RFU CDHR5 (11726645_a_at) / Fold change /veh CDHR5 (11726645_a_at) / RFU RCAN1 (11760418_a_at) / Fold change /veh RCAN1 (11760418_a_at) / RFU FAM167A (11723789_a_at) / Fold change /veh FAM167A (11723789_a_at) / RFU FAM26E (11764081_at) / Fold change /veh FAM26E (11764081_at) / RFU ISYNA1 (11749810_s_at) / Fold change /veh ISYNA1 (11749810_s_at) / RFU ACY1 (11761880_at) / Fold change /veh ACY1 (11761880_at) / RFU 11764098_at / Fold change /veh 11764098_at / RFU SAMD14 (11745864_x_at) / Fold change /veh SAMD14 (11745864_x_at) / RFU NPB (11741838_a_at) / Fold change /veh NPB (11741838_a_at) / RFU TMPRSS6 (11731388_a_at) / Fold change /veh TMPRSS6 (11731388_a_at) / RFU KRTAP10-2 (11738614_at) / Fold change /veh KRTAP10-2 (11738614_at) / RFU ARHGAP8 /// PRR5-ARHGAP8 (11727945_x_at) / Fold change /veh ARHGAP8 /// PRR5-ARHGAP8 (11727945_x_at) / RFU KRTAP5-7 /// NADSYN1 (11734609_at) / Fold change /veh KRTAP5-7 /// NADSYN1 (11734609_at) / RFU RASL12 (11751679_a_at) / Fold change /veh RASL12 (11751679_a_at) / RFU CDKN2B (11736163_a_at) / Fold change /veh CDKN2B (11736163_a_at) / RFU PRF1 (11729649_at) / Fold change /veh PRF1 (11729649_at) / RFU, ZNF638 /// ZNF638-IT1 / Fold change vs veh, ZNF638 /// ZNF638-IT1 / RFU, PANK3 / Fold change vs veh, PANK3 / RFU, SH3YL1 / Fold change vs veh, SH3YL1 / RFU, ZEB2 / Fold change vs veh, ZEB2 / RFU, NRIP1 / Fold change vs veh, NRIP1 / RFU, PTTG1IP / Fold change vs veh, PTTG1IP / RFU, CAPN2 / Fold change vs veh, CAPN2 / RFU, MED14 / Fold change vs veh, MED14 / RFU, SNORA58 / Fold change vs veh, SNORA58 / RFU, C1orf63 / Fold change vs veh, C1orf63 / RFU, LRRFIP1 / Fold change vs veh, LRRFIP1 / RFU, NDUFAF7 / Fold change vs veh, NDUFAF7 / RFU, SLC12A2 / Fold change vs veh, SLC12A2 / RFU, IBTK / Fold change vs veh, IBTK / RFU, ESF1 / Fold change vs veh, ESF1 / Fold change vs veh, TMEM50B / RFU, TAOK1 / Fold change vs veh, TAOK1 / RFU, ACBD3 / Fold change vs veh, ACBD3 / RFU, TMA16 / Fold change vs veh, TMA16 / RFU, RWDD3 / Fold change vs veh, RWDD3 / RFU, BCAT1 / Fold change vs veh, BCAT1 / RFU, EDEM3 / Fold change vs veh, EDEM3 / RFU, TMEM33 / Fold change vs veh, TMEM33 / RFU, WDR75 / Fold change vs veh, WDR75 / RFU, AHCTF1 / Fold change vs veh, AHCTF1 / RFU, TFRC / Fold change vs veh, TFRC / RFU, ZDHHC17 / Fold change vs veh, ZDHHC17 / RFU, NOM1 / Fold change vs veh, NOM1 / RFU, ARL8B / Fold change vs veh, ARL8B / RFU, ZBTB11 / Fold change vs veh, ZBTB11 / RFU, TAMM41 / Fold change vs veh, TAMM41 / RFU, KIAA1704 /// LOC100996395 / Fold change vs veh, KIAA1704 /// LOC100996395 / RFU, ING1 / Fold change vs veh, ING1 / RFU, TRMT61B / Fold change vs veh, TRMT61B / RFU, FUBP3 / Fold change vs veh, FUBP3 / RFU, TP53 / Fold change vs veh, TP53 / RFU, TNKS2 / Fold change vs veh, TNKS2 / RFU, ZFP14 / Fold change vs veh, ZFP14 / RFU, ACTR2 / Fold change vs veh, ACTR2 / RFU, PPP3R1 / Fold change vs veh, PPP3R1 / RFU, PIK3R1 / Fold change vs veh, PIK3R1 / RFU, HNRNPA1 / Fold change vs veh, HNRNPA1 / RFU, RNF170 / Fold change vs veh, RNF170 / RFU, ZNF28 / Fold change vs veh, ZNF28 / RFU, RNGTT / Fold change vs veh, RNGTT / RFU, OGT / Fold change vs veh, OGT / RFU, BRD1 / Fold change vs veh, BRD1 / RFU, MARS / Fold change vs veh, MARS / RFU, ZNF655 / Fold change vs veh, ZNF655 / RFU, FAHD1 / Fold change vs veh, FAHD1 / RFU, BDP1 / Fold change vs veh, BDP1 / RFU, LRRCC1 / Fold change vs veh, LRRCC1 / RFU, ARID1A / Fold change vs veh, ARID1A / RFU, ZNF146 / Fold change vs veh, ZNF146 / RFU, ZNF330 / Fold change vs veh, ZNF330 / RFU, GPN3 / Fold change vs veh, GPN3 / RFU, C9orf123 / Fold change vs veh, C9orf123 / RFU, N4BP2L2 / Fold change vs veh, N4BP2L2 / RFU, ARFIP1 / Fold change vs veh, ARFIP1 / RFU, FAM179B / Fold change vs veh, FAM179B / RFU, BCL10 / Fold change vs veh, BCL10 / RFU, UHRF1BP1L / Fold change vs veh, UHRF1BP1L / RFU, BET1 / Fold change vs veh, BET1 / RFU, CNOT2 / Fold change vs veh, CNOT2 / RFU, ZNF268 / Fold change vs veh, ZNF268 / Fold change vs veh, ZNF507 / RFU, DGCR2 / Fold change vs veh, DGCR2 / RFU, WDSUB1 / Fold change vs veh, WDSUB1 / Fold change vs veh, HSP90B1 /// MIR3652 / RFU, ADSS / Fold change vs veh, ADSS / RFU, GK / Fold change vs veh, GK / RFU, ZNF148 / Fold change vs veh, ZNF148 / RFU, TAF9 / Fold change vs veh, TAF9 / RFU, SLC1A5 / Fold change vs veh, SLC1A5 / RFU, SLMO2 / Fold change vs veh, SLMO2 / RFU, ABCC4 / Fold change vs veh, ABCC4 / RFU, LOC101060439 /// RAP1B / Fold change vs veh, LOC101060439 /// RAP1B / RFU, RFX7 / Fold change vs veh, RFX7 / RFU, GTPBP10 / Fold change vs veh, GTPBP10 / RFU, CNEP1R1 / Fold change vs veh, CNEP1R1 / RFU, BIVM-ERCC5 /// ERCC5 / Fold change vs veh, BIVM-ERCC5 /// ERCC5 / RFU, ILF3 / Fold change vs veh, ILF3 / RFU 11762660_at / Fold change /veh 11762660_at / RFU VCAN (11757783_s_at) / Fold change /veh VCAN (11757783_s_at) / RFU DDX43 (11728927_at) / Fold change /veh DDX43 (11728927_at) / RFU KRT8 (11758188_x_at) / Fold change /veh KRT8 (11758188_x_at) / RFU NKD1 (11759106_at) / Fold change /veh NKD1 (11759106_at) / RFU SRD5A1 (11742802_a_at) / Fold change /veh SRD5A1 (11742802_a_at) / RFU TPSAB1 /// TPSB2 (11721975_s_at) / Fold change /veh TPSAB1 /// TPSB2 (11721975_s_at) / RFU GSTM3 (11746129_a_at) / Fold change /veh GSTM3 (11746129_a_at) / RFU IL23R (11737362_x_at) / Fold change /veh IL23R (11737362_x_at) / RFU TMEM51 (11727254_a_at) / Fold change /veh TMEM51 (11727254_a_at) / RFU PIWIL2 (11732686_x_at) / Fold change /veh PIWIL2 (11732686_x_at) / RFU ORM1 (11744905_x_at) / Fold change /veh ORM1 (11744905_x_at) / RFU CCDC152 (11743942_at) / Fold change /veh CCDC152 (11743942_at) / RFU ECM1 (11717891_a_at) / Fold change /veh ECM1 (11717891_a_at) / RFU IL23R (11748794_a_at) / Fold change /veh IL23R (11748794_a_at) / RFU TNFAIP8L3 (11732012_x_at) / Fold change /veh TNFAIP8L3 (11732012_x_at) / RFU MBOAT4 (11741988_at) / Fold change /veh MBOAT4 (11741988_at) / RFU 11764193_at / Fold change /veh 11764193_at / RFU TMEM53 (11763286_at) / Fold change /veh TMEM53 (11763286_at) / RFU MAGEB2 (11727129_at) / Fold change /veh MAGEB2 (11727129_at) / RFU TMEM200A (11744735_a_at) / Fold change /veh TMEM200A (11744735_a_at) / RFU CCDC152 (11751479_a_at) / Fold change /veh CCDC152 (11751479_a_at) / RFU FAM211A (11726209_a_at) / Fold change /veh FAM211A (11726209_a_at) / RFU RGS16 (11746705_a_at) / Fold change /veh RGS16 (11746705_a_at) / RFU VCAN (11755009_s_at) / Fold change /veh VCAN (11755009_s_at) / RFU RHOB (11743442_s_at) / Fold change /veh RHOB (11743442_s_at) / RFU RGS16 (11720943_a_at) / Fold change /veh RGS16 (11720943_a_at) / RFU RGS16 (11720944_at) / Fold change /veh RGS16 (11720944_at) / RFU, VPS4B / Fold change vs veh, VPS4B / RFU, CREB1 / Fold change vs veh, CREB1 / RFU, DNAJC13 / Fold change vs veh, DNAJC13 / RFU, GNAQ / Fold change vs veh, GNAQ / RFU, CDK5R1 / Fold change vs veh, CDK5R1 / RFU, ZRANB3 / Fold change vs veh, ZRANB3 / RFU, CUL4A / Fold change vs veh, CUL4A / RFU, CCNY / Fold change vs veh, CCNY / RFU, UFL1 / Fold change vs veh, UFL1 / RFU, COG3 / Fold change vs veh, COG3 / RFU, DIAPH2 / Fold change vs veh, DIAPH2 / RFU, SKA2 / Fold change vs veh, SKA2 / RFU, AFF3 / Fold change vs veh, AFF3 / RFU, LMF1 / Fold change vs veh, LMF1 / RFU, IPO11 / Fold change vs veh, IPO11 / RFU, DFFB / Fold change vs veh, DFFB / RFU, FOXP1 / Fold change vs veh, FOXP1 / RFU, CARD8 / Fold change vs veh, CARD8 / RFU, STRN3 / Fold change vs veh, STRN3 / RFU, ADK / Fold change vs veh, ADK / RFU, RASSF2 / Fold change vs veh, RASSF2 / RFU, WIPF1 / Fold change vs veh, WIPF1 / RFU, LARP1B / Fold change vs veh, LARP1B / RFU, RASA1 / Fold change vs veh, RASA1 / RFU, RB1 / Fold change vs veh, RB1 / RFU, PPFIA1 / Fold change vs veh, PPFIA1 / RFU, MAT2A / Fold change vs veh, MAT2A / RFU, CCT5 / Fold change vs veh, CCT5 / RFU, WDR92 / Fold change vs veh, WDR92 / RFU, CUX1 / Fold change vs veh, CUX1 / RFU, TTC7A / Fold change vs veh, TTC7A / RFU, TMEM135 / Fold change vs veh, TMEM135 / RFU, DEPTOR / Fold change vs veh, DEPTOR / RFU, CPM / Fold change vs veh, CPM / RFU, DNAJB6 / Fold change vs veh, DNAJB6 / RFU, CACNA2D3 / Fold change vs veh, CACNA2D3 / RFU, DTX4 / Fold change vs veh, DTX4 / RFU, TFCP2 / Fold change vs veh, TFCP2 / RFU, GMCL1 /// GMCL1P1 / Fold change vs veh, GMCL1 /// GMCL1P1 / RFU, AEBP2 / Fold change vs veh, AEBP2 / RFU, SNHG1 /// SNORD22 /// SNORD25 /// SNORD26 /// SNORD27 /// SNORD28 /// SNORD29 /// SNORD31 / Fold change vs veh, SNHG1 /// SNORD22 /// SNORD25 /// SNORD26 /// SNORD27 /// SNORD28 /// SNORD29 /// SNORD31 / Fold change (Aza/veh), C12orf56 (ProbeSet 11735607_a_at) / Fold change (ACY-1035/veh), C12orf56 (ProbeSet 11735607_a_at) / Fold change (Aza/veh), FGFR1OP (ProbeSet 11751329_s_at) / Fold change (ACY-1035/veh), FGFR1OP (ProbeSet 11751329_s_at) / Fold change (Aza/veh), VPS36 (ProbeSet 11739960_a_at) / Fold change (ACY-1035/veh), VPS36 (ProbeSet 11739960_a_at) / RFU SYPL1 (11715823_x_at) / Fold change /veh SYPL1 (11715823_x_at) / RFU IGFBP7 (11715501_s_at) / Fold change /veh IGFBP7 (11715501_s_at) / RFU REEP3 (11722064_at) / Fold change /veh REEP3 (11722064_at) / RFU IGLL1 (11728026_x_at) / Fold change /veh IGLL1 (11728026_x_at): dose or concentration left out as unconfirmed
Details: MV-4-11 cells, 48 hours

Nc1ncn([C@@H]2O[C@H](CO)[C@@H](O)[C@H]2O)c(=O)n1 [azacitidine]
Fold change /veh GAP43 (11754022_s_at): 0.84
